Test results from the NIST ThermoML archive (doi:10.1016/j.fluid.2008.03.013).

Conditions: Transpiration method

CCC1COC(=O)O1 (stereo unspecified) [1,2-butylene carbonate]
Liquid
Conditions | vapor or sublimation pressure [kPa]
288.6 K | 0.00186
293.5 K | 0.00284
298.5 K | 0.00453
303.4 K | 0.00649
307.3 K | 0.0087
310.3 K | 0.01164
313.3 K | 0.01439
316.3 K | 0.01837
319.3 K | 0.02281
322.5 K | 0.02805
327.4 K | 0.04092
330.3 K | 0.04839
333.6 K | 0.06415
338.7 K | 0.086
343.8 K | 0.1159

CC1COC(=O)O1 (stereo unspecified) [4-methyl-1,3-dioxolan-2-one]
Liquid
Conditions | vapor or sublimation pressure [kPa]
298.4 K | 0.0085
303.3 K | 0.01247
308.2 K | 0.0181
311.3 K | 0.0223
313.2 K | 0.02529
318.2 K | 0.03723
321.2 K | 0.04503
322.7 K | 0.05193
324.2 K | 0.05893
326.6 K | 0.06788
329.6 K | 0.08307
332.7 K | 0.1019
335.7 K | 0.1281
337.7 K | 0.1375
338.8 K | 0.1525
340.8 K | 0.1721
341.8 K | 0.1787
344.9 K | 0.2178

O=C1OCCO1 [ethylene carbonate]
Conditions | vapor or sublimation pressure [kPa]
280.6 K, Crystal | 0.00062
286.2 K, Crystal | 0.00119
291.3 K, Crystal | 0.002
295.5 K, Crystal | 0.00325
299.4 K, Crystal | 0.00472
303.2 K, Crystal | 0.00675
304.4 K, Crystal | 0.00785
306.4 K, Crystal | 0.00907
308.4 K, Crystal | 0.01077
310.3 K, Liquid | 0.012
314.4 K, Liquid | 0.01615
314.5 K, Liquid | 0.01614
317.3 K, Liquid | 0.02
320.3 K, Liquid | 0.02499
320.4 K, Liquid | 0.02475
323.5 K, Liquid | 0.0305
324.4 K, Liquid | 0.03281
327.4 K, Liquid | 0.03939
328.6 K, Liquid | 0.04312
331.3 K, Liquid | 0.05119
333.6 K, Liquid | 0.05962
335.4 K, Liquid | 0.06848
338.7 K, Liquid | 0.08312
341.4 K, Liquid | 0.0978
342.3 K, Liquid | 0.1031
343.8 K, Liquid | 0.1094
345.2 K, Liquid | 0.1213
347.6 K, Liquid | 0.1379
349 K, Liquid | 0.154
352.4 K, Liquid | 0.1869
354 K, Liquid | 0.2037
357.5 K, Liquid | 0.2473
358.9 K, Liquid | 0.2642
360.6 K, Liquid | 0.292
363.2 K, Liquid | 0.3283
364.1 K, Liquid | 0.3486
366.7 K, Liquid | 0.4047
369.5 K, Liquid | 0.4694

O=C1OCC(CO)O1 (stereo unspecified) [glycerine carbonate]
Liquid
Conditions | vapor or sublimation pressure [kPa]
330.2 K | 0.00029
333.2 K | 0.00039
338.3 K | 0.00062
343.2 K | 0.00091
348.4 K | 0.00144
351.2 K | 0.00173
355.5 K | 0.0025
359.8 K | 0.00368
360.6 K | 0.00362
363.7 K | 0.00433
366.4 K | 0.00542
369.4 K | 0.00681
371.8 K | 0.00782
373.2 K | 0.00886
377.2 K | 0.01171
384.5 K | 0.02019
387.3 K | 0.02392
388 K | 0.02471
392.7 K | 0.03339
398.5 K | 0.04694
